Patent US4567175A, “8-Chloro-1,5-benzothiazepine derivatives” (Tanabe Seiyaku Co., Ltd., priority 1983, dated 1986)

Assays:
[1] = system: spontaneously hypertensive rats (SHR); assay: Hypotensive activity, oral administration to SHR, systolic blood pressure by tail plethysmography (Experiment 1); assay type: in vivo; settings: 30 mg/kg oral
Procedure: A test compound (dose: 30 mg/kg) dissolved or suspended in water was administered orally to spontaneously hypertensive rats (SHR) (one group: 3 rats) fasted overnight. The systolic blood pressure of the rats was measured by the tail plethysmographic technique (The Journal of Laboratory and Clinical Medicine 78(1971), page 957). The hypotensive activity of the test compound was estimated at one or 4 hours after dosing and expressed as "-" if the decrease in blood pressure is less than 10 mm Hg; "+" if the decrease is not less than 10 mm Hg but less than 20 mm Hg; "++" if the decrease is not less than 20 mm Hg but less than 40 mm Hg; "+++" if the decrease is not less than 40 mm Hg but less than 60 mm Hg; or "++++" if the decrease is not less than 60 mm Hg.

[2] = system: isolated heart of guinea pig; assay: Coronary vasodilating activity: Langendorff's method, coronary blood flow of isolated guinea pig heart (Experiment 4); settings: for Coronary vasodilating activity (increase in coronary blood flow): isolated guinea pig heart, Langendorff, 30° C.
Procedure: Langendorff's method was used for testing the effect on the coronary blood flow of the isolated heart of guinea pig (about 280 g). The isolated heart was perfused with Locke-Ringer solution containing 2% of defibrinated rabbit blood, which had been saturated with a mixed gas of 95% O2 and 5% CO2 (30° C.). Perfusion pressure was kept at 40 cm H2 O. A solution of a test compound in an aqueous 5% glucose solution was injected into the perfusing solution at a volume of 0.1 ml per heart. The overflow of the perfusate was measured by means of a drop counter.
The coronary vasodilating activity of the test compound was expressed as "±" if the increase in coronary blood flow is less than 0.5 ml/minute at a dose of 100 μg/heart; "+" if the increase is not less than 0.5 ml/minute at a dose of 100 μg/heart; "++" if the increase is not less than 0.5 ml/minute at a dose of 30 μg/heart; and "+++" if the increase is not less than 0.5 ml/minute at a dose of not more than 10 μg/heart.

[3] = system: platelet aggregation; assay: Platelet aggregation-inhibiting activity, collagen-induced aggregation in rat platelet-rich plasma, Born's method (Experiment 5); assay type: cell-based, male Sprague-Dawley rats; set-up: key: -: less than 10% inhibition of platelet aggregation; +: not less than 10% inhibition of platelet aggregation but said percentage inhibition was lower than that of acetylsalicylic acid (100 μg/ml); ++: platelet aggregation-inhibiting activity at least as strong as that of acetylsalicylic acid (100 μg/ml); settings: final concentration 100 μg/ml, rat PRP, 37° C.
Source text: Blood was collected from the abdominal aorta of male Sprague-Dawley rats which were anesthetized with ether. Nine volumes of rat blood were mixed with one volume of an aqueous trisodium citrate solution, and the mixture was centrifuged to give platelet-rich plasma ("PRP") as the supernatant solution. The bottom layer was further centrifuged to give platelet-poor plasma ("PPP") as the supernatant solution. Platelet counts were adjusted to 0.8-1×10^6 /mm^3 for PRP by dilution with PPP. After a mixture of 200 μl of the diluted PRP and 25 μl of a test compound solution (final concentration: 100 μg/ml) was stirred for 2 minutes at 37° C., 25 μl of a collagen solution [Biochim. Biophys. Acta, 186, page 254(1969)] were added thereto. The degree of platelet aggregation was estimated by Born's method [Nature, 194, page 927(1962)] and the percentage inhibition of platelet aggregation was calculated therefrom.

[4] = system: vertebral artery; assay: Cerebral vasodilating activity: vertebral artery blood flow in anesthetized dogs, intraarterial injection, potency ratio to papaverine (Experiment 2); assay type: in vivo; settings: for Cerebral vasodilating activity (potency ratio): injected into vertebral artery, potency ratio to papaverine from dose-response curves; for increase in vertebral artery blood flow (in words) / cerebral vasodilating activity, times stronger than the 7-chloro derivative: intraarterial; for cerebral vasodilating activity, times stronger than the 7-chloro derivative: versus (+)-cis-...-7-chloro-... hydrochloride (so in the source)
Procedure: On the other hand, when the coronary vasodilating activity is estimated by the Langendorff method using isolated hearts of guinea pigs, said activity of (+)-cis-2-(4-methoxyphenyl)-3-acetoxy-5-[2-(dimethylamino)ethyl]-8-chloro- 2,3-dihydro-1,5-benzothiazepin-4(5H)-one hydrochloride is about 10 times stronger than that of papaverine.
Male dogs weighing 10 to 20 kg were anesthetized with sodium pentobarbital (30 mg/kg, intravenous injection). The blood flow in vertebral artery was measured continuously by means of an electromagnetic flowmeter under artificial respiration. A test compound dissolved in an aqueous 5% glucose solution was injected into vertebral artery. The cerebral vasodilating activity of the test compound was estimated in terms of the potency ratio of said compound to papaverine, which was calculated from the dose-response curves thereof.

[5] = system: vertebral artery; assay: Cerebral vasodilating activity: increase in vertebral artery blood flow in anesthetized dogs after femoral vein injection (Experiment 3); assay type: in vivo; settings: 200 μg/kg into femoral vein
Procedure: Male dogs weighing about 20-24 kg (one group: 2 dogs) were anesthetized with sodium pentobarbital (35 mg/kg, intravenous injection). The blood flow in vertebral artery was measured by means of an electromagnetic flowmeter under artificial respiration. A test compound (i.e., (+)-cis-2-(4-methoxyphenyl)-3-acetoxy-5-[2-(dimethylamino)ethyl]-8-chloro- 2,3-dihydro-1,5-benzothiazepin-4(5H)-one hydrochloride) in a physiological saline solution was injected into the femoral vein at a dose of 200 μg/kg. The cerebral vasodilating activity of the test compound was estimated in terms of "increase (Δml/minute) in vertebral artery blood flow" which was calculated by subtracting "the blood flow measured immediately before injection of test compound" from "the blood flow measured at a period of time after injection of test compound".

[6] = Acute toxicity (LD50), oral administration to mice; settings: mouse, in vivo
Procedure: For example, the acute toxicity (LD50) of (+)-cis-2-(4-methoxyphenyl)-3-acetoxy-5-[2-(dimethylamino)ethyl]-8-chloro- 2,3-dihydro-1,5-benzothiazepin-4(5H)-one hydrochloride when orally administered to mice is more than 1000 mg/kg.

Row | SMILES | Hypotensive activity (decrease in blood pressure), 1 hr after dosing [1] | Hypotensive activity (decrease in blood pressure), 4 hrs after dosing [1] | Coronary vasodilating activity (increase in coronary blood flow) [2] | Platelet aggregation-inhibiting activity [3] | Cerebral vasodilating activity (potency ratio) [4] | also measured
1 | CCN(C)CCN1C(=O)[C@H](OC(C)=O)[C@H](c2ccc(OC)cc2)Sc2cc(Cl)ccc21.Cl (racemic) [(±)-cis-2-(4-methoxyphenyl)-3-acetoxy-5-[2-(N-methyl-N-ethylamino)ethyl]-8-chloro-2,3-dihydro-1,5-benzothiazepin-4(5H)-one hydrochloride] | +++ (decrease is not less than 40 mm Hg but less than 60 mm Hg) | +++ (decrease is not less than 40 mm Hg but less than 60 mm Hg) |  |  |  | 
2 | CCCN(C)CCN1C(=O)[C@H](OC(C)=O)[C@H](c2ccc(OC)cc2)Sc2cc(Cl)ccc21.O=C(O)C(=O)O (racemic) [(±)-cis-2-(4-methoxyphenyl)-3-acetoxy-5-[2-(N-methyl-N-n-propylamino)ethyl]-8-chloro-2,3-dihydro-1,5-benzothiazepin-4(5H)-one oxalate] |  |  | +++ (increase is not less than 0.5 ml/minute at a dose of not more than 10 μg/heart) | ++ |  | 
3 | COc1ccc([C@@H]2Sc3ccc(Cl)cc3N(CCN(C)C)C(=O)[C@@H]2OC(C)=O)cc1.Cl (racemic) [(±)-cis-2-(4-methoxyphenyl)-3-acetoxy-5-[2-(dimethylamino)ethyl]-7-chloro-2,3-dihydro-1,5-benzothiazepin-4(5H)-one hydrochloride, reference compound] | - (decrease in blood pressure is less than 10 mm Hg) | ++ (decrease is not less than 20 mm Hg but less than 40 mm Hg) |  |  | 5 | 
4 | COc1ccc([C@@H]2Sc3cc(Cl)ccc3N(CCN(C)C)C(=O)[C@@H]2OC(C)=O)cc1.Cl (racemic) [(±)-cis-2-(4-methoxyphenyl)-3-acetoxy-5-[2-(dimethylamino)ethyl]-8-chloro-2,3-dihydro-1,5-benzothiazepin-4(5H)-one hydrochloride] | ++ (decrease is not less than 20 mm Hg but less than 40 mm Hg) | ++++ (decrease is not less than 60 mm Hg) | +++ (increase is not less than 0.5 ml/minute at a dose of not more than 10 μg/heart) | ++ |  | 
5 | CCN(CC)CCN1C(=O)[C@H](OC(C)=O)[C@H](c2ccc(OC)cc2)Sc2cc(Cl)ccc21.O=C(O)C(=O)O (single isomer, unassigned) [(+)-cis-2-(4-methoxyphenyl)-3-acetoxy-5-[2-(diethylamino)ethyl]-8-chloro-2,3-dihydro-1,5-benzothiazepin-4(5H)-one oxalate] |  |  |  | ++ |  | 
6 | COc1ccc([C@@H]2Sc3cc(Cl)ccc3N(CCN(C)C)C(=O)[C@@H]2OC(C)=O)cc1.Cl (single isomer, unassigned) [(+)-cis-2-(4-methoxyphenyl)-3-acetoxy-5-[2-(dimethylamino)ethyl]-8-chloro-2,3-dihydro-1,5-benzothiazepin-4(5H)-one hydrochloride] |  |  | +++ (increase is not less than 0.5 ml/minute at a dose of not more than 10 μg/heart) |  | 25 | Increase in vertebral artery blood flow, 1 minute ([5]; 1 minute after injection): 58 Δml/minute; Increase in vertebral artery blood flow, 3 minutes ([5]; 3 minutes after injection): 53 Δml/minute; Increase in vertebral artery blood flow, 5 minutes ([5]; 5 minutes after injection): 52 Δml/minute; Increase in vertebral artery blood flow, 10 minutes ([5]; 10 minutes after injection): 38 Δml/minute; Increase in vertebral artery blood flow, 20 minutes ([5]; 20 minutes after injection): 21 Δml/minute; Increase in vertebral artery blood flow, 30 minutes ([5]; 30 minutes after injection): 14 Δml/minute; coronary vasodilating activity, times stronger than papaverine ([2]; Langendorff method, isolated hearts of guinea pigs, versus papaverine): about 10 times; LD50 [6]: > 1000 mg/kg; increase in vertebral artery blood flow (in words) [4]: remarkable increase; cerebral vasodilating activity, times stronger than the 7-chloro derivative [4]: about 5 times
7 | COc1ccc([C@@H]2Sc3cc(Cl)ccc3N(CCN(C)C)C(=O)[C@@H]2OC(C)=O)cc1.O=C(O)/C=C\C(=O)O (single isomer, unassigned) [(+)-cis-2-(4-methoxyphenyl)-3-acetoxy-5-[2-(dimethylamino)ethyl]-8-chloro-2,3-dihydro-1,5-benzothiazepin-4(5H)-one maleate] | ++++ (decrease is not less than 60 mm Hg) | ++++ (decrease is not less than 60 mm Hg) |  |  |  | decrease in blood pressure, 4 hours after administration ([1]; 4 hours): ~68 mm Hg; decrease in blood pressure, one hour after administration ([1]; one hour): about 86 mm Hg
8 | COc1ccc([C@@H]2Sc3cc(Cl)ccc3N(CCN(C)C)C(=O)[C@@H]2O)cc1.O=C(O)C(=O)O (single isomer, unassigned) [(+)-cis-2-(4-methoxyphenyl)-3-hydroxy-5-[2-(dimethylamino)ethyl]-8-chloro-2,3-dihydro-1,5-benzothiazepin-4(5H)-one oxalate] |  |  |  | ++ |  | 
9 | CCC(=O)O[C@H]1C(=O)N(CCN(C)C)c2ccc(Cl)cc2S[C@H]1c1ccc(OC)cc1.O=C(O)C(=O)O (single isomer, unassigned) [(+)-cis-2-(4-methoxyphenyl)-3-propionyloxy-5-[2-(dimethylamino)ethyl]-8-chloro-2,3-dihydro-1,5-benzothiazepin-4(5H)-one oxalate] |  |  |  | ++ | 23.7 | increase in vertebral artery blood flow (in words) [4]: remarkable increase; cerebral vasodilating activity, times stronger than the 7-chloro derivative [4]: about 5 times
10 | COc1ccc(Cc2nccc3cc(OC)c(OC)cc23)cc1OC [Papaverine, reference compound] |  |  | + (increase is not less than 0.5 ml/minute at a dose of 100 μg/heart) |  |  | 
